In article PMC9951978, “Comparative Study of Different H2S Donors as Vasodilators and Attenuators of Superoxide-Induced Endothelial Damage” (Antioxidants, 2023):

Experiments:
[1] = tested on: endothelium-intact rat aortic rings; experiment: Vasoprotection: acetylcholine-induced relaxation in rat aortic rings with endothelium impairment induced by pyrogallol; format: cell-based
Procedure: The experiments were performed on rat thoracic aortic rings from male Wistar rats (180–200 g), prepared as previously described. The effect of H2S donor or catechin, taken as a reference, on acetylcholine-induced relaxation in aortic rings pre-incubated with pyrogallol was studied as published elsewhere, with some modifications. Aortic rings were incubated with diethyldithiocarbamate (DETCA) 10 mM for 1 h to irreversibly inactivate endogenous superoxide dismutase (SOD). Then, the aortic rings were washed and randomly divided into four groups: (1) control: endothelium-intact rings incubated in Krebs’ solution with vehicle only (DMSO); (2) H2S donor: endothelium-intact rings incubated with H2S donor (100 μM) or reference catechin (10 mM) for 30 min; (3) pyrogallol: endothelium-intact rings incubated with 500 μM pyrogallol for 15 min; (4) H2S donor plus pyrogallol: endothelium-intact rings incubated with H2S donor (100 μM) or reference catechin (10 mM) for 30 min and 500 μM pyrogallol for the last 15 min. After the incubation time, the rings were washed, 1 μM phenylephrine was added to the organ baths, then acetylcholine (10^−9–l0^−5 M) was added cumulatively. Tension was measured and calculated as the percentage of contraction in response to phenylephrine (1 μM). Data were expressed as mean ± SEM, n = 3–9.
Figure 3 Effect of 6 (100 μM) on acetylcholine-induced vasodilation in endothelium-intact rat aortic rings. […] Statistical analyses were made using Student’s t-test for unpaired data. ** p < 0.01 vs. the pyrogallol group.

[2] = Stability of the compounds in human serum (RP-HPLC); format: in vitro ADME; settings: 37 °C; for % Compd ± SE: 200 µM; for half-life at 200 µM: male, read-out: Half-life (t1/2)
Procedure: A solution of each compound (10 mM) in DMSO was added to human serum (obtained by filtration and sterilization from AB, Sigma-Aldrich (Merck KGaA, 64,271 Darmstadt, Germany) male human blood) and was preheated to 37 °C to obtain a final concentration of 200 µM. The resulting solution was incubated at 37.0 ± 0.5 °C, and aliquots of 300 µL were taken at appropriate time intervals and added to 300 µL of CH3CN acidified with 0.1% formic acid in order to deproteinize the serum. The mixture was centrifuged for 10 min at 2150× g, and the clear supernatant was filtered (PTFE filters, 0.45 µm, VWR (VWR International S.r.l., Milano, Italy)) and analyzed by RP-HPLC as described below. All experiments were performed at least in triplicate.
(§1) RP-HPLC analysis was performed with an HP 1100 chromatograph system (Agilent Technologies, Palo Alto, CA, USA) equipped with an injector (Rheodyne, Cotati, CA, USA), a quaternary pump (model G1311A), a membrane degasser (model G1379A), and a diode-array detector (DAD, model G1315B) integrated into the HP1100 system. The data were processed using an HP ChemStation system (Agilent Technologies, Palo Alto, CA, USA). A stationary phase Tracer Excel 120 ODSB (25 × 0.46, 5 μm; Tecnokroma (Teknokroma Analytical S.A., Barcelona, Spain)) was used. The mobile phase consisted of acetonitrile 0.1% HCOOH/water 0.1% HCOOH at a flow rate of 1.0 mL/min, with gradient elution: 35% acetonitrile up to 5 min, 35 to 80% acetonitrile between 5 and 10 min, 80% acetonitrile between 10 and 20 min. The injection volume was 20 μL. The column effluent was monitored for each compound at the wavelength of maximum absorption (referenced against a 700 nm wavelength). Using this RP-HPLC procedure, we separated the compounds from any degradation products and we quantified the compounds during incubation time. The quantification was performed using a calibration curve obtained with standard solutions of compounds chromatographed under the same experimental conditions, in a concentration range of 1–100 μM (r^2 > 0.99).

rat aorta strips = experiment: Vasodilating activity on endothelium-denuded rat aorta strips precontracted with KCl; format: cell-based; settings: for activation at 300 µM / activation at 10 µM / activation at 100 µM: rat aorta strips precontracted with KCl, read-out: % Vasodilation at the maximum concentration testable; for Effect of glibenclamide on the concentration-response curve / EC50: presence vs absence of K+ATP channel blocker glibenclamide; for EC50: endothelium-denuded rat aorta strips precontracted with 25 mM KCl, read-out: Vasodilating activity EC50 ± SEM
Procedure: Vasodilating activity was studied on the thoracic aortas from male Wistar rats (180–200 g), following a protocol published elsewhere. All synthesized compounds were dissolved in DMSO. The addition of the vehicle had no perceptible consequence on contraction level. Results were expressed as EC50 ± SE (μM), n = 3–8.
The vasodilator action of H2S-releasing compounds was evaluated on endothelium-denuded rat aorta strips precontracted with KCl. The results reported in Table 1 show the heterogeneous behavior of the tested compounds.

[3] = Stability at pH 7.4 in phosphate buffer (PBS); format: physicochemical; settings: PBS pH 7.4, 37 °C
Procedure: (§2) The compounds were solubilized at a concentration of 100 µM (starting from a 10 mM stock solution in DMSO) in 0.1 M PBS, pH = 7.4, in the absence or presence of 5 mM L-cysteine (50×). The solutions were incubated at 37.0 ± 0.5 °C, and at appropriate time intervals, aliquots were analyzed by RP-HPLC as described below. All experiments were performed at least in triplicate.
as §1

[4] = Stability at pH 7.4 in PBS in the presence of L-cysteine (50x); format: physicochemical; settings: pH 7.4, 37 °C; for half-life at 100 µM: phosphate buffer (PBS) with L-cysteine, read-out: t1/2, buffer + cysteine (50×) (converted)
Procedure: as §2, §1

Row | % Compd ± SE ([2]; 1 h) [%] | % Compd ± SE ([2]; 4 h) [%] | % Compd ± SE ([2]; 24 h) [%] | Stability (% compound ± SE), buffer ([3]; 24 h) [%] | half-life at 200 µM [2] [h] | Stability (% compound ± SE), buffer + cysteine (50×) ([4]; 1 h) [%] | Stability (% compound ± SE), buffer + cysteine (50×) ([4]; 24 h) [%] | Compound | also measured
1 |  |  |  |  |  |  |  | O.Oc1cc(O)c2c(c1)O[C@H](c1ccc(O)c(O)c1)[C@@H](O)C2 [catechin, reference compound] | Ach-induced maximal relaxation ([1]; rings incubated with catechin 10 mM and 500 μM pyrogallol): 77 ± 3%
2 |  |  |  |  |  |  |  | Oc1cccc(O)c1O [pyrogallol, reference compound] | Maximum Ach-induced relaxation ([1]; rings incubated with 500 μM pyrogallol alone for 15 min (control 80 ± 3%)): 15 ± 3%
3 | 19.8 ± 0.7 | 0 | 0 | 57.1 ± 3.3 |  |  |  | O=C(O)CCC(=O)NSC(=O)c1ccccc1 [Compound 7] | activation at 300 µM (rat aorta strips): 12%; Stability (% compound ± SE), buffer ([3]; 6 h): 91.6 ± 1.1%; half-life at 100 µM [4]: ~1.3 h
4 |  |  |  |  | 2.4 |  |  | COC(=O)c1ccc(-c2ssc(=S)c2-c2ccccc2)cc1 [Compound 10] | activation at 10 µM (rat aorta strips): 29%
5 | 99.2 ± 0.1 | 96.0 ± 0.8 | 94.3 ± 2 | 101.8 ± 1.4 |  | 99.0 ± 0.4 | 81.9 ± 0.1 | O=C(O)COc1ccc(-c2cc(=S)ss2)cc1 [Compound 13] | activation at 100 µM (rat aorta strips; 100 μM): 39%; Stability (% compound ± SE), buffer + cysteine (50×) ([4]; 6 h): 96.6 ± 0.1%
6 | 96.3 ± 0.2 | 90.0 ± 0.9 | 53 ± 2 | 94.8 ± 3.2 |  | 99.0 ± 0.3 | 37.6 ± 0.1 | O=C(O)c1ccc(-c2cssc2=S)cc1 [Compound 11] | activation at 100 µM (rat aorta strips; 100 μM): 42%; Stability (% compound ± SE), buffer + cysteine (50×) ([4]; 6 h): 82.6 ± 0.2%
7 |  |  |  |  | 2.7 |  |  | CCOC(=O)c1ccc(-c2cssc2=S)cc1 [Compound 12] | Effect of glibenclamide on the concentration-response curve / EC50 (rat aorta strips): almost the same
8 | 88 ± 1 | 35 ± 1 | 8.0 ± 0.5 | 91.5 ± 1.0 |  | 87.3 ± 1.0 | 69.5 ± 1.0 | C=CCSCC(NC(C)=O)C(=O)O (stereo not shown) [Compound 1] | Stability (% compound ± SE), buffer + cysteine (50×) ([4]; 6 h): 72.5 ± 1.0%
9 |  |  |  |  | < 0.5 |  |  | C=CCSSCCC(=O)OCC [Compound 4] | % Vasodilation at the maximum concentration testable, + Glib. 10 μM (rat aorta strips; 100 μM, in the presence of glibenclamide 10 μM): [44 ± 3] ^2%; EC50 (rat aorta strips): 64 ± 6 µM; Effect of glibenclamide on the concentration-response curve / EC50 (rat aorta strips): significantly rightward shifted
10 | 91.6 ± 0.3 | 85.0 ± 0.1 | 64.7 ± 0.2 | 82.3 ± 0.4 |  | 97.6 ± 0.2 | 25.0 ± 0.6 | NC(=S)c1ccc(C(=O)O)cc1 [Compound 17] | activation at 300 µM (rat aorta strips): 27%; Stability (% compound ± SE), buffer + cysteine (50×) ([4]; 6 h): 84.1 ± 0.2%
11 |  |  |  |  | 1.5 |  |  | COC(=O)c1csc(=S)s1 [Compound 16] | activation at 100 µM (rat aorta strips; 100 μM): 25%
12 | 99.2 ± 0.1 | 95 ± 1 | 94.8 ± 2 | 100.0 ± 1.0 |  | 100.0 ± 0.2 | 96.6 ± 1.0 | O=C(O)c1csc(=S)s1 [Compound 15] | activation at 300 µM (rat aorta strips): 17%
13 | 94.2 ± 0.2 | 90.0 ± 0.8 | 83 ± 1 | 92.6 ± 0.8 |  | 98.6 ± 0.3 | 78.1 ± 0.3 | O=C(O)c1ccc(-c2ssc(=S)c2-c2ccccc2)cc1 [Compound 9] | EC50 (rat aorta strips): 78 ± 7 µM; Effect of glibenclamide on the concentration-response curve / EC50 (rat aorta strips): significantly rightward shifted; Stability (% compound ± SE), buffer + cysteine (50×) ([4]; 6 h): 94.9 ± 0.7%
14 | 80.0 ± 1.0 | 62 ± 2 | 44 ± 1 | 101.0 ± 1.0 |  |  |  | C=CCSSCCC(=O)O [Compound 3] | half-life at 100 µM [4]: ~0.167 h
15 | 64 ± 1 | 39 ± 1 | 16 ± 1 | 87.7 ± 1.0 |  |  |  | C=CCSSCC(NC(C)=O)C(=O)O (stereo not shown) [Compound 5] | activation at 300 µM (rat aorta strips): 16%; half-life at 100 µM [4]: ~0.0833 h
16 |  |  |  |  | 0.5 |  |  | CCOC(=O)COc1ccc(-c2cc(=S)ss2)cc1 [Compound 14] | activation at 10 µM (rat aorta strips): 37%
17 |  |  |  |  | < 0.5 |  |  | CC(=O)NSC(=O)c1ccccc1 [Compound 8] | Effect of glibenclamide on the concentration-response curve / EC50 (rat aorta strips): almost the same; Ach-induced maximum relaxation ([1]; H2S donor 100 μM without exposure to pyrogallol): did not reduce Ach-induced maximum relaxation; Ach-induced maximal relaxation ([1]; rings incubated with H2S donor 100 μM 30 min and 500 μM pyrogallol last 15 min): not able to reduce pyrogallol-induced endothelium impairment

Row | Compound | % Compd ± SE ([2]; 1 h) [%] | % Compd ± SE ([2]; 4 h) [%] | % Compd ± SE ([2]; 24 h) [%] | Stability (% compound ± SE), buffer ([3]; 24 h) [%] | half-life at 200 µM [2] [h] | Stability (% compound ± SE), buffer + cysteine (50×) ([4]; 1 h) [%] | Stability (% compound ± SE), buffer + cysteine (50×) ([4]; 24 h) [%] | also measured
18 | COC(=O)c1ccc(C(N)=S)cc1 [Compound 18] |  |  |  |  | 3.7 |  |  | activation at 10 µM (rat aorta strips): 33%
